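Method: 48-hour compound exposure of cells in 96-well plates, five concentrations, linear interpolation of endpoints. TGI: concentration producing complete growth inhibition.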
Key:
Assay in all cases: NCI anticancer screen, dose series, 48 h
HL-60(TB) leukemia = tested on: HL-60(TB) leukemia
HT29 colon = tested on: HT29 colon
NCI-H23 lung = tested on: NCI-H23 lung
SK-MEL-5 melanoma = tested on: SK-MEL-5 melanoma
SK-OV-3 ovarian = tested on: SK-OV-3 ovarian
MDA-MB-231 breast = tested on: MDA-MB-231 breast
PC-3 prostate = tested on: PC-3 prostate
OVCAR-3 ovarian = tested on: OVCAR-3 ovarian
MOLT-4 leukemia = tested on: MOLT-4 leukemia
786-0 renal = tested on: 786-0 renal
SF-295 CNS = tested on: SF-295 CNS
SF-539 CNS = tested on: SF-539 CNS
T-47D breast = tested on: T-47D breast
COLO 205 colon = tested on: COLO 205 colon
MDA-N = tested on: MDA-N
HOP-62 NSCLC = tested on: HOP-62 NSCLC
NCI-H226 lung = tested on: NCI-H226 lung
EKVX NSCLC = tested on: EKVX NSCLC
SNB-75 CNS = tested on: SNB-75 CNS
MCF7 breast = tested on: MCF7 breast
MDA-MB-435 = tested on: MDA-MB-435
SK-MEL-28 melanoma = tested on: SK-MEL-28 melanoma
UACC-257 melanoma = tested on: UACC-257 melanoma
MALME-3M melanoma = tested on: MALME-3M melanoma
NCI-H460 lung = tested on: NCI-H460 lung
A498 renal = tested on: A498 renal
SF-268 CNS = tested on: SF-268 CNS
NCI/ADR-RES ovarian = tested on: NCI/ADR-RES ovarian
UO-31 renal = tested on: UO-31 renal
K-562 leukemia = tested on: K-562 leukemia
HCT-15 colon = tested on: HCT-15 colon
RPMI-8226 leukemia = tested on: RPMI-8226 leukemia
UACC-62 melanoma = tested on: UACC-62 melanoma
SW-620 colon = tested on: SW-620 colon
BT-549 breast = tested on: BT-549 breast
IGROV1 ovarian = tested on: IGROV1 ovarian
HCC-2998 colon = tested on: HCC-2998 colon
DU-145 prostate = tested on: DU-145 prostate
SNB-19 CNS = tested on: SNB-19 CNS
SN12C renal = tested on: SN12C renal
OVCAR-4 ovarian = tested on: OVCAR-4 ovarian
U251 CNS = tested on: U251 CNS
SK-MEL-2 melanoma = tested on: SK-MEL-2 melanoma
TK-10 renal = tested on: TK-10 renal
HCT-116 colon = tested on: HCT-116 colon
OVCAR-8 ovarian = tested on: OVCAR-8 ovarian
RXF 393 renal = tested on: RXF 393 renal
HS 578T breast = tested on: HS 578T breast
SR leukemia = tested on: SR leukemia
HOP-92 NSCLC = tested on: HOP-92 NSCLC
OVCAR-5 ovarian = tested on: OVCAR-5 ovarian
A549 NSCLC = tested on: A549 NSCLC
LOX IMVI melanoma = tested on: LOX IMVI melanoma
CCRF-CEM leukemia = tested on: CCRF-CEM leukemia
NCI-H522 lung = tested on: NCI-H522 lung
CAKI-1 renal = tested on: CAKI-1 renal
KM12 colon = tested on: KM12 colon
M14 melanoma = tested on: M14 melanoma
ACHN renal = tested on: ACHN renal

Question: Which results are given for `CCCCCNC(=O)c1cc2cc(CCl)ccc2oc1=O`?
Answer: TGI (HL-60(TB) leukemia): 10.5 µM; TGI (HT29 colon): 9.58 µM; TGI (NCI-H23 lung): 11.5 µM; TGI (SK-MEL-5 melanoma): > 51.2 µM; TGI (SK-OV-3 ovarian): 10.3 µM; TGI (MDA-MB-231 breast): 3.72 µM; TGI (PC-3 prostate): 2.81 µM; TGI (OVCAR-3 ovarian): 26.6 µM; TGI (MOLT-4 leukemia): > 100 µM; TGI (786-0 renal): 2.82 µM; TGI (SF-295 CNS): 24.7 µM; TGI (SF-539 CNS): 16.8 µM; TGI (T-47D breast): 2.98 µM; TGI (COLO 205 colon): 2.79 µM; TGI (MDA-N): > 94.2 µM; TGI (HOP-62 NSCLC): 14 µM; TGI (NCI-H226 lung): 30.1 µM; TGI (EKVX NSCLC): 9.94 µM; TGI (SNB-75 CNS): 13.1 µM; TGI (MCF7 breast): > 87.4 µM; TGI (MDA-MB-435): > 60.8 µM; TGI (SK-MEL-28 melanoma): > 100 µM; TGI (UACC-257 melanoma): 6.56 µM; TGI (MALME-3M melanoma): 7.5 µM; TGI (NCI-H460 lung): 3.3 µM; TGI (A498 renal): 3.98 µM; TGI (SF-268 CNS): 12.4 µM; TGI (NCI/ADR-RES ovarian): > 66.8 µM; TGI (UO-31 renal): 3.07 µM; TGI (K-562 leukemia): > 100 µM; TGI (HCT-15 colon): 6.22 µM; TGI (RPMI-8226 leukemia): > 100 µM; TGI (UACC-62 melanoma): 7.15 µM; TGI (SW-620 colon): > 100 µM; TGI (BT-549 breast): > 46.3 µM; TGI (IGROV1 ovarian): 18.6 µM; TGI (HCC-2998 colon): 18.9 µM; TGI (DU-145 prostate): 5.95 µM; TGI (SNB-19 CNS): > 69 µM; TGI (SN12C renal): 3.67 µM; TGI (OVCAR-4 ovarian): 26.6 µM; TGI (U251 CNS): 36.6 µM; TGI (SK-MEL-2 melanoma): 19.8 µM; TGI (TK-10 renal): 2.85 µM; TGI (HCT-116 colon): > 38.5 µM; TGI (OVCAR-8 ovarian): > 100 µM; TGI (RXF 393 renal): 1.78 µM; TGI (HS 578T breast): > 54.7 µM; TGI (SR leukemia): > 100 µM; TGI (HOP-92 NSCLC): 3.71 µM; TGI (OVCAR-5 ovarian): 7.99 µM; TGI (A549 NSCLC): 14.1 µM; TGI (LOX IMVI melanoma): > 72.8 µM; TGI (CCRF-CEM leukemia): > 100 µM; TGI (NCI-H522 lung): 17.1 µM; TGI (CAKI-1 renal): 2.57 µM; TGI (KM12 colon): > 44.5 µM; TGI (M14 melanoma): > 51.4 µM; TGI (ACHN renal): 4.52 µM

Question: For `Nc1nc(N)c(-c2cccc(C(F)(F)F)c2)c(Cc2cccc(C(F)(F)F)c2)n1`, which TGI (HL-60(TB) leukemia) is on record?
Answer: 17.7 µM

Question: What about the TGI (HT29 colon) of the same molecule?
Answer: 10.9 µM

Question: And the TGI (NCI-H23 lung)?
Answer: 13 µM

Question: And the TGI (SK-MEL-5 melanoma)?
Answer: 17.6 µM

Question: What about the TGI (SK-OV-3 ovarian) of the same molecule?
Answer: 28.1 µM

Question: And the TGI (MDA-MB-231 breast)?
Answer: 26.2 µM

Question: What about the TGI (PC-3 prostate) of the same molecule?
Answer: 24.1 µM

Question: What about the TGI (OVCAR-3 ovarian) of the same molecule?
Answer: 22.1 µM

Question: And the TGI (MOLT-4 leukemia)?
Answer: 17.7 µM

Question: And the TGI (786-0 renal)?
Answer: 15.3 µM

Question: What about the TGI (SF-295 CNS) of the same molecule?
Answer: 22.7 µM

Question: What about the TGI (SF-539 CNS) of the same molecule?
Answer: 16.6 µM

Question: What about the TGI (T-47D breast) of the same molecule?
Answer: 32.4 µM

Question: And the TGI (COLO 205 colon)?
Answer: 19.6 µM

Question: What about the TGI (MDA-N) of the same molecule?
Answer: 17.9 µM

Question: And the TGI (HOP-62 NSCLC)?
Answer: 30.1 µM

Question: And the TGI (NCI-H226 lung)?
Answer: 30.1 µM

Question: And the TGI (EKVX NSCLC)?
Answer: 21.1 µM

Question: And the TGI (SNB-75 CNS)?
Answer: 29 µM

Question: What about the TGI (MCF7 breast) of the same molecule?
Answer: 18.5 µM

Question: What about the TGI (MDA-MB-435) of the same molecule?
Answer: 22.5 µM

Question: And the TGI (SK-MEL-28 melanoma)?
Answer: 24.8 µM

Question: What about the TGI (UACC-257 melanoma) of the same molecule?
Answer: 20.2 µM

Question: And the TGI (MALME-3M melanoma)?
Answer: 25.7 µM

Question: And the TGI (NCI-H460 lung)?
Answer: 13.5 µM

Question: What about the TGI (A498 renal) of the same molecule?
Answer: 15.9 µM

Question: What about the TGI (SF-268 CNS) of the same molecule?
Answer: 20 µM

Question: What about the TGI (NCI/ADR-RES ovarian) of the same molecule?
Answer: 23.1 µM

Question: And the TGI (UO-31 renal)?
Answer: 19.4 µM

Question: What about the TGI (K-562 leukemia) of the same molecule?
Answer: 17.7 µM

Question: And the TGI (HCT-15 colon)?
Answer: 16.5 µM

Question: What about the TGI (RPMI-8226 leukemia) of the same molecule?
Answer: 21.6 µM

Question: And the TGI (UACC-62 melanoma)?
Answer: 14.8 µM

Question: And the TGI (SW-620 colon)?
Answer: 26.7 µM

Question: What about the TGI (BT-549 breast) of the same molecule?
Answer: 22.4 µM

Question: What about the TGI (IGROV1 ovarian) of the same molecule?
Answer: 19.3 µM

Question: And the TGI (HCC-2998 colon)?
Answer: 11.3 µM

Question: What about the TGI (DU-145 prostate) of the same molecule?
Answer: 21.5 µM

Question: And the TGI (SNB-19 CNS)?
Answer: 19.2 µM

Question: And the TGI (SN12C renal)?
Answer: 15.3 µM

Question: And the TGI (OVCAR-4 ovarian)?
Answer: 31 µM

Question: And the TGI (U251 CNS)?
Answer: 29.6 µM

Question: What about the TGI (SK-MEL-2 melanoma) of the same molecule?
Answer: 20.7 µM

Question: What about the TGI (TK-10 renal) of the same molecule?
Answer: 20.9 µM

Question: And the TGI (HCT-116 colon)?
Answer: 12.2 µM

Question: And the TGI (OVCAR-8 ovarian)?
Answer: 24.6 µM

Question: What about the TGI (RXF 393 renal) of the same molecule?
Answer: 22.5 µM

Question: And the TGI (HS 578T breast)?
Answer: 35 µM

Question: What about the TGI (SR leukemia) of the same molecule?
Answer: 17.5 µM

Question: What about the TGI (HOP-92 NSCLC) of the same molecule?
Answer: 25.8 µM

Question: And the TGI (OVCAR-5 ovarian)?
Answer: 18.8 µM

Question: What about the TGI (A549 NSCLC) of the same molecule?
Answer: 13.3 µM

Question: What about the TGI (LOX IMVI melanoma) of the same molecule?
Answer: 17.9 µM

Question: What about the TGI (CCRF-CEM leukemia) of the same molecule?
Answer: 44.3 µM

Question: And the TGI (NCI-H522 lung)?
Answer: 15.4 µM

Question: And the TGI (CAKI-1 renal)?
Answer: 21.9 µM

Question: What about the TGI (KM12 colon) of the same molecule?
Answer: 21.7 µM

Question: What about the TGI (M14 melanoma) of the same molecule?
Answer: 17.4 µM

Question: What about the TGI (ACHN renal) of the same molecule?
Answer: 13.5 µM

Reference: PubChem BioAssay (NCI)
